This is an account of results in ChEMBL document CHEMBL1806384, “Identification of benzofuran-4,5-diones as novel and selective non-hydroxamic acid, non-peptidomimetic based inhibitors of human peptide deformylase” (Bioorg Med Chem Lett, 2011).

Each structure is given as a SMILES string.

Test [1] has as its target T1, Interstitial collagenase (Homo sapiens) (UniProt P03956).
T1 sequence (whole entry): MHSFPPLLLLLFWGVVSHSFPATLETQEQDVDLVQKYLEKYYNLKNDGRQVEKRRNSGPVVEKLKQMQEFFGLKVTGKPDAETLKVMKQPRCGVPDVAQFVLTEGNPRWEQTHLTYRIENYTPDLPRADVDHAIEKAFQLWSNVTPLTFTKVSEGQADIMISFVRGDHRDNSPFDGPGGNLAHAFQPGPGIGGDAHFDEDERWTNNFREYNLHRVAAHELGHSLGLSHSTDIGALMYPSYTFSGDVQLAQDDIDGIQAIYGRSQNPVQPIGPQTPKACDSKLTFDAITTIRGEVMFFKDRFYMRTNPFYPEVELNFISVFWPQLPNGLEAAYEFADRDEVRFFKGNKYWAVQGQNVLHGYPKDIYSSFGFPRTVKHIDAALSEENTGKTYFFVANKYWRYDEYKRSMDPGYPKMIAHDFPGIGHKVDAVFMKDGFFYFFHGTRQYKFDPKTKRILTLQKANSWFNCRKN
The test can be described thus: Inhibition of human recombinant MMP1 at 100 uM after 1 hr by fluorescence polarization based competition assay. For orientation: Fluorescence polarisation rises when a labelled molecule tumbles more slowly, as on binding a larger partner.

Test [2] can be described thus: Cytotoxicity against human CWR22 cells. The format is functional, cell-based.
Test [3] in a line: Cytotoxicity against human ALL3 cells. The class given is functional, cell-based.
Test [4] deals with T2, Peptide deformylase, mitochondrial (Homo sapiens) (UniProt Q9HBH1).
T2 sequence (whole entry): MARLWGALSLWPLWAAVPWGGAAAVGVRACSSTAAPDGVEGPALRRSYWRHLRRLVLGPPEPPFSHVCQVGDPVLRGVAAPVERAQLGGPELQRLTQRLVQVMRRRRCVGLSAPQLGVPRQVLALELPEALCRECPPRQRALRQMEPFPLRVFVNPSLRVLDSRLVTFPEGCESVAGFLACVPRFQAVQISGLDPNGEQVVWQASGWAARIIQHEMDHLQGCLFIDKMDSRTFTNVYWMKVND
The test can be described thus: Inhibition of human peptide deformylase at 100 uM after 1 hr by fluorescence polarization based competition assay.

Test [5] relates to HL-60. In words: Cytotoxicity against human vincristine-resistant HL60 cells. The format is functional, cell-based.
Test [6] addresses T3, Peptide deformylase (Escherichia coli) (UniProt Q9JN24).
T3 sequence (whole entry): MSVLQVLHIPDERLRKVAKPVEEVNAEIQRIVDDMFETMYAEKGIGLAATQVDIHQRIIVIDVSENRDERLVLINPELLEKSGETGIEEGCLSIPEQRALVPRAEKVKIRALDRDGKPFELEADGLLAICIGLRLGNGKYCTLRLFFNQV
In words: Inhibition of Escherichia coli peptide deformylase at 100 uM after 1 hr by fluorescence polarization based competition assay.

Another test deals with HEK293. The test can be described thus: Cytotoxicity against human HEK293 cells. The format is cell-based.
Test [7] in a line: Cytotoxicity against human Meso47 cells. The format is functional, cell-based.
Test [8] relates to HL-60. In words: Cytotoxicity against human HL60 cells. The format is functional, cell-based.
For another test, the system named is MOLT-3. The test can be described thus: Cytotoxicity against human MOLT3 cells. The format is functional, cell-based.
Test [9] has as its target T4, Aminopeptidase N (Sus scrofa) (UniProt P15145).
T4 sequence (whole entry): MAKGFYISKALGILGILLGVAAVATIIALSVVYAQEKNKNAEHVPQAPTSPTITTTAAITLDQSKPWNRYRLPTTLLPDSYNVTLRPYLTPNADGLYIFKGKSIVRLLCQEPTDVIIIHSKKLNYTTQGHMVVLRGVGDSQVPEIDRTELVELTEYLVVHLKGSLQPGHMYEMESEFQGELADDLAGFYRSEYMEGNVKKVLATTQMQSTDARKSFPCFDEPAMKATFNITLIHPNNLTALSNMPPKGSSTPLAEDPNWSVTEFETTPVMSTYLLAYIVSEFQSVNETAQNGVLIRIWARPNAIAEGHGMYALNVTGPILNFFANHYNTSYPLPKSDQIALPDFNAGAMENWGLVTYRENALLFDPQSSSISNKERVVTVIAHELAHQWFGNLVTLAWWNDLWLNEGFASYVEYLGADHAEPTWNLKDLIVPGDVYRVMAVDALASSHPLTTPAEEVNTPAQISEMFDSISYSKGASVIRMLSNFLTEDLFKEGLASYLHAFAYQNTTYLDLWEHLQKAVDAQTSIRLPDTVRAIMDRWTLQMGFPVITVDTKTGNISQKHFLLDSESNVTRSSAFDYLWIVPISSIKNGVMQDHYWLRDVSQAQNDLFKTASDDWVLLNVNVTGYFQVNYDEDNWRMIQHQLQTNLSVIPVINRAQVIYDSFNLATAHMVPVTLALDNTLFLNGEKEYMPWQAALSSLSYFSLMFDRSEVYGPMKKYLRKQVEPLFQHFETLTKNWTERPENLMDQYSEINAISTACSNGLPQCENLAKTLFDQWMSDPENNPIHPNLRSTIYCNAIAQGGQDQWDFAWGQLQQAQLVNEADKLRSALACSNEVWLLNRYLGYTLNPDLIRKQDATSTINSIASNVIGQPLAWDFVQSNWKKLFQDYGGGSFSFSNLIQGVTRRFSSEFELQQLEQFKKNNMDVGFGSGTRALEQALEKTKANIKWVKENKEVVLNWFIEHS
In words: Inhibition of porcine kidney microsomal aminopeptidase N at 100 uM after 1 hr by fluorescence polarization based competition assay.

A further test concerns Y79. The test can be described thus: Cytotoxicity against human Y79 cells. The class given is functional, cell-based.
The subject of a further test is Jurkat. The test can be described thus: Cytotoxicity against human Jurkat cells. The format is functional, cell-based.

For the molecule `COc1ccc(C(=O)c2coc3c(Br)c(Br)c(O)cc23)cc1`, the inhibition (in general, how much of the control response was suppressed) in [1] was 2%; in test [4], 0%; in test [6] it was 3%; in test [9], 0%. The half-inhibitory concentration (IC50) (in [2]; in [3]; in the test on HL-60 [5]; with HEK293; in [7]; in the test on HL-60 [8]) was 100 µM each time. Moreover, the IC50 in the test with MOLT-3, in the test with Y79 and with Jurkat was 100 µM each time.
For `COc1ccc(C(=O)c2coc3ccc(O)cc23)cc1`, the inhibition in test [1] was 0%; in [4], 0%; in test [6], 0%; in [9], 4%. Further, the IC50 (in test [2]; in test [3]; in the test with HL-60 [5]; in the test with HEK293; in test [7]; in the test with HL-60 [8]) was 100 µM each time. Moreover, the IC50 (commonly the concentration that gives 50% inhibition) in the test with MOLT-3 is 100 µM; in the test with Y79, 100 µM; in the test on Jurkat, 33 µM.
`COc1cc(C(=O)c2coc3c(Cl)c(Cl)c(O)cc23)cc(OC)c1OC`: the inhibition stood at 0% in test [1], 18% in [4], 2% in test [6] and 2% in [9]. For the same molecule, the half-maximal inhibitory concentration (IC50) (in test [2]; in test [3]; in the test with HL-60 [5]; in the test with HEK293; in test [7]; in the test with HL-60 [8]) was 100 µM each time. Further, the IC50 in the test on MOLT-3, in the test on Y79 and in the test on Jurkat was 100 µM throughout.
Turning to `O=C(c1ccccc1)c1coc2c(Cl)c(Cl)c(O)cc12`, the inhibition was 0% in [1], 24% in test [4], 1% in [6] and 6% in test [9]. Also, the half-inhibitory concentration (IC50) (in [2]; in test [3]; with HL-60 [5]; with HEK293; in [7]; in the test on HL-60 [8]) was 100 µM throughout. Besides, the concentration for half-maximal inhibition (IC50) in the test on MOLT-3, in the test with Y79 and with Jurkat was 100 µM each time.
For the molecule `COc1ccc(C(=O)c2coc3c(Cl)c(Cl)c(O)cc23)cc1`, the inhibition in test [1] was 14%; in [4], 13%; in test [6], 0%; in [9], 0%. Besides, the IC50 (in test [2]; in [3]; in the test on HL-60 [5]; with HEK293; in test [7]; in the test on HL-60 [8]) was 100 µM throughout. Also, the IC50 with MOLT-3, in the test with Y79 and in the test on Jurkat was 100 µM each time.
Regarding `COc1ccc(C(=O)c2coc3ccc(O)c(Br)c23)cc1`, the inhibition in test [1], in test [4], in test [6] and in test [9] was 0% in each case. The IC50 (in test [2]; in [3]; with HL-60 [5]; with HEK293; in [7]; in the test on HL-60 [8]) was 100 µM each time. In addition, the IC50 in the test with MOLT-3, in the test on Y79 and with Jurkat was 100 µM throughout.
Consider `COc1ccc(C(=O)c2coc3cc(Cl)c(O)c(Cl)c23)cc1`, for which the inhibition was determined as 0% in test [1], 26% in [4], 3% in test [6] and 0% in test [9]. Further, the IC50 in test [2] amounted to 100 µM; in test [3], 100 µM; in the test with HL-60 [5], 100 µM; in the test with HEK293, 32 µM; in test [7], 100 µM; in the test with HL-60 [8] it was 19 µM. Further, the results for the IC50 with MOLT-3, in the test on Y79 and in the test with Jurkat were 32 µM, 100 µM and 24 µM, respectively.
As for `COc1cc(C(=O)c2coc3c(Br)c(Br)c(O)cc23)cc(OC)c1OC`, the inhibition in [1] was determined as 0%; in test [4] it was 5%; in test [6], 7%; in [9] it was 10%. The IC50 turned out to be 100 µM in test [2]; 60 µM in test [3]; 100 µM in the test on HL-60 [5]; 100 µM with HEK293; 100 µM in [7]; 79 µM with HL-60 [8]. Further, the IC50 in the test on MOLT-3 is 100 µM; with Y79, 100 µM; with Jurkat, 62 µM.
As for `COc1ccc(C(=O)c2coc3c2C(=O)C(=O)c2ccccc2-3)cc1OC`, the inhibition in test [1], in test [4], in test [6] and in test [9] was 0% each time.
Regarding `COc1ccc(C(=O)c2coc3c(Cl)cc(O)c(Cl)c23)cc1`, the inhibition in [1] is 0%; in test [4], 9%; in test [6] it was 0%; in test [9], 0%. Besides, the IC50 (in test [2]; in test [3]; in the test with HL-60 [5]; with HEK293; in [7]; in the test with HL-60 [8]) was 100 µM each time. Moreover, the 50% inhibitory concentration (IC50) in the test on MOLT-3, in the test with Y79 and in the test on Jurkat was 100 µM in each case.
Turning to `O=C(c1ccccc1)c1coc2ccc(O)cc12`, the inhibition in test [1] turned out to be 0%; in test [4], 11%; in test [6], 7%; in test [9], 10%. The half-inhibitory concentration (IC50) (in test [2]; in [3]; with HL-60 [5]; with HEK293; in [7]; in the test with HL-60 [8]) was 100 µM each time. Moreover, the IC50 in the test on MOLT-3, with Y79 and in the test with Jurkat was 100 µM throughout.
Regarding `COc1ccc(C(=O)c2coc3c(Br)cc(O)cc23)cc1`, the inhibition in test [1] was found to be 0%; in test [4], 11%; in test [6], 9%; in test [9] it was 0%. In addition, the IC50 (in test [2]; in test [3]; with HL-60 [5]; with HEK293; in [7]; with HL-60 [8]) was 100 µM in each case. Also, the half-maximal inhibitory concentration (IC50) in the test with MOLT-3, with Y79 and in the test with Jurkat was 100 µM in each case.
As for `COc1ccc(C(=O)c2coc3c2C(=O)C(=O)c2ccccc2-3)cc1`, the inhibition came to 2% in [1], 0% in test [4], 3% in test [6] and 0% in test [9].
Consider `COc1cc(C(=O)c2coc3c2C(=O)C(=O)c2ccccc2-3)cc(OC)c1OC`, for which the inhibition in [1] was 0%; in [4], 5%; in test [6] it was 7%; in test [9] it was 10%.
